Paper PMC10342533, “Novel Tetrazole Derivatives Targeting Tubulin Endowed with Antiproliferative Activity against Glioblastoma Cells” (International Journal of Molecular Sciences, 2023)
In brackets after ≈: the same amount, converted by molar mass.

Assays:
U87 MG (glioblastoma) = experiment: Cell growth inhibition, MTT assay, U87 MG; assay type: cell-based; conditions: Homo sapiens, U-87 MG
Method: (§1) The ability of the synthesized compounds to inhibit the cell proliferation of human cancer cell lines was assayed by measuring cell viability through the use of the MTT method 72 h after treatment. For this purpose, representative cell lines of the most frequent kinds of cancer were selected, including the following: HeLa (cervix epithelioid carcinoma), MCF7 (breast adenocarcinoma), U87 MG (glioblastoma), T98G (temozolomide resistant glioblastoma), HepG2 (hepatocellular carcinoma), HCT8 (colorectal carcinoma), and HT-29 (colon adenocarcinoma).
(§2) The cell lines were obtained from ATTC (Manassas, VA, USA). […] The cells were periodically tested for Mycoplasma infection by using a MycoAlert kit (Lonza, Norwest, Australia), and only Mycoplasma-free cells were used in the experiments.
(§3) Then, every compound was added (10 µL/well) to a final concentration of 10 µM. Untreated cells were used as negative controls. The antiproliferative activity of compounds was measured 72 h after drug exposure through the MTT assay. […] For this purpose, compounds were used at different concentrations, ranging from 10^−10 to 10^−2 M. Measurements were performed in triplicate, and each experiment was repeated three times. The IC50 values were determined using Origin software (version 9.6, OriginLab, Washington, DC, USA).

[1] = tested on: HT-29 (colon adenocarcinoma); experiment: Cell growth inhibition, MTT assay, HT-29, without or with verapamil; assay type: cell-based, human
Method: as §1
Multidrug resistance (MDR) proteins, especially P-glycoprotein (P-gp), are often involved in resistance mechanisms affecting tubulin-binding drugs that are frequently related to the failure of cancer therapies. […] These pumps are also part of the blood–brain barrier.
as §2, §3

[2] = tested on: HeLa (cervix epithelioid carcinoma); experiment: Cell growth inhibition, MTT assay, HeLa; assay type: cell-based; conditions: Homo sapiens
Method: as §1, §2, §3

[3] = tested on: microtubule network of HeLa cells; experiment: Immunofluorescence confocal microscopy of microtubule network, HeLa; assay type: cell-based, human; conditions: 24 h, 100 nM, α-tubulin immunofluorescence
Method: To elucidate if the interaction of the compounds with tubulin inferred from the in vitro TPI experiments has consequences on cellular microtubules, we studied the effect of representative compounds on the microtubule network of HeLa, MCF7, and U87 MG cells 24 h after treatment via the use of immunofluorescence confocal microscopy through α-tubulin and nuclei labeling.
HeLa, MCF7, and U87 MG cells (8·10^4 cells/mL) were grown on 0.01% poly-L-lysine pre-coated square glass coverslips (22 mm^2), deposited on 6-well plates (1 coverslip/well), and incubated in complete DMEM medium (see above) at 37 °C and 5% CO2 atmosphere for 24 h. Then, the cells were incubated for 24 h in the presence or absence (negative controls) of selected compounds (10, 12, or 14) at 100 nM. After drug treatment incubation, medium was removed, and coverslips were washed three times with PBS, fixed with 4% formaldehyde in PBS for 10 min, permeabilized with 0.5% Triton X-100, (Sigma-Aldrich, St. Louis, MO, USA) in PBS for 90 s at 4 °C, blocked with 10% BSA in PBS for 30 min, and washed with PBS four times. The coverslips were incubated for 1 h with anti-α-tubulin mouse monoclonal antibody (Sigma-Aldrich, St. Louis, MO, USA), diluted 1:200 in PBS containing 3% BSA, washed four times with PBS, and then incubated in darkness with the fluorescent secondary antibody Alexa Fluor 488 goat anti-mouse IgG (Molecular Probes, Invitrogen, Eugenen, OR, USA) and diluted 1:400 in PBS containing 1% BSA for 1.5 h. The coverslips were washed four times with PBS, and a drop of ProLong™ Gold Antifade Mountant containing DAPI (ThermoFisher, Waltham, MA, USA) was added for cell nuclei staining. The samples were analyzed via confocal microscopy, which was performed by using a LEICA SP5 microscope DMI-6000V model coupled to a LEICA LAS AF software computer.

[4] = Aqueous solubility, shake-flask method, phosphate buffer pH 7.4; assay type: physicochemical; conditions: thermodynamic from solid, phosphate buffer pH 7.4, shake-flask, mean ± SD of three experiments
Method: The aqueous solubility of tetrazole derivatives was determined by the shaking flask methodology in phosphate buffer at pH 7.4, microfiltration, and quantification of the saturated solutions via UV spectroscopy. […] The introduction of polar groups on the 3-indole position was favorable since the most soluble compounds were the oximes 16–19 (38–53 µg/mL), followed by the carbaldehyde series 12–15 (33–45 µg/mL), and the carbonitrile derivatives (25–40 µg/mL), whereas the unsubstituted indoles 8–11 were the least soluble series (19–35 µg/mL).
The aqueous solubility of the compounds was determined using the saturation shake-flask method. First, calibration lines at the maximum wavelength of absorbance were determined for each compound. Then, 5 mg of each compound was suspended in 500 µL of pH 7.4 buffer, and the resulting mixture was shaken for 72 h at room temperature and filtrated over a […] filter to remove the insoluble fraction. The concentration of the compound in the supernatant (saturated solution) was determined by measuring UV absorbance at the maximum wavelength of absorbance and interpolation in the calibration line. A Helios Alfa Spectrophotometer was used for the UV measurements. The aqueous solubility values are given as the average of three independent experiments.

[5] = tested on: MCF7 (breast adenocarcinoma); experiment: Cell growth inhibition, MTT assay, MCF7; assay type: cell-based; conditions: Homo sapiens
Method: as §1, §2, §3

[6] = Homo sapiens, HT-29, 72 h after drug exposure
[7] = Homo sapiens, HT-29, mean ± SD, Table S1
[8] = mean ± SD, Table S1, in the presence of verapamil (10 µM)

Row | SMILES | IC50 (U87 MG (glioblastoma); 72 h after drug exposure) [nM] | IC50 (U87 MG (glioblastoma); mean ± SD, Table S1) [nM] | IC50 [1, 6] [nM] | IC50 [1, 7] [nM] | IC50 [1, 8] [nM] | IC50 ([2]; 72 h after drug exposure) [nM] | IC50 ([2]; mean ± SD, Table S1) [nM] | effect on microtubule network [3] | solubility at 72 h [4] [µg/mL] | IC50 ([5]; 72 h after drug exposure) [nM] | IC50 ([5]; mean ± SD, Table S1) [nM]
1 | CSc1cc(-c2nnnn2-c2ccc3c(ccn3C)c2)cc(Cl)n1 [Compound 10, 5-(5-(2-chloro-6-(methylsulfanyl)pyridin-4-yl)-1H-tetrazol-1-yl)-1-methyl-1H-indole] | 22 | 22.2 ± 0.1 | 59 | 59.4 ± 0.5 | 61.4 ± 0.4 | 39 | 39.3 ± 0.2 | severe microtubule network disruption | 26.1 ± 0.2 (≈ 73.1 µM) | 38 | 38.4 ± 0.4
2 | Cn1cc(C=O)c2cc(-n3nnnc3-c3cc(Cl)nc(Cl)c3)ccc21 [Compound 12, 5-(5-(2,6-dichloropyridin-4-yl)-1H-tetrazol-1-yl)-1-methyl-1H-indole-3-carbaldehyde] | 17 | 17.1 ± 0.1 | 51 | 51.3 ± 0.3 | 56.5 ± 0.5 | 36 | 36.4 ± 0.4 | severe microtubule network disruption | 33.1 ± 0.3 (≈ 88.7 µM) | 37 | 37.3 ± 0.2
3 | CSc1cc(-c2nnnn2-c2ccc3c(c2)c(C=O)cn3C)cc(Cl)n1 [Compound 14, 5-(5-(2-chloro-6-(methylsulfanyl)pyridin-4-yl)-1H-tetrazol-1-yl)-1-methyl-1H-indole-3-carbaldehyde] | 12 | – | 31 | 31.1 ± 0.3 | 33.1 ± 0.4 | 24 | 24.2 ± 0.1 | severe microtubule network disruption | 36.9 ± 0.3 (≈ 95.9 µM) | 26 | 26.2 ± 0.1
